# In patent US9663460B2, “Sulfur derivatives as chemokine receptor modulators” (ALLERGAN, INC., priority 2010, dated 2017):
# Molecular target: CCR2 (Homo sapiens (Human), UniProt P41597)
# Experiment: Calcium activity assayed on the FLIPR Tetra in HEK-Gqi5 cells stably expressing CCR2
# Type: cell-based
# Conditions: FLIPR Tetra calcium assay
# CCR2, sequence (P41597 whole entry, species assumed): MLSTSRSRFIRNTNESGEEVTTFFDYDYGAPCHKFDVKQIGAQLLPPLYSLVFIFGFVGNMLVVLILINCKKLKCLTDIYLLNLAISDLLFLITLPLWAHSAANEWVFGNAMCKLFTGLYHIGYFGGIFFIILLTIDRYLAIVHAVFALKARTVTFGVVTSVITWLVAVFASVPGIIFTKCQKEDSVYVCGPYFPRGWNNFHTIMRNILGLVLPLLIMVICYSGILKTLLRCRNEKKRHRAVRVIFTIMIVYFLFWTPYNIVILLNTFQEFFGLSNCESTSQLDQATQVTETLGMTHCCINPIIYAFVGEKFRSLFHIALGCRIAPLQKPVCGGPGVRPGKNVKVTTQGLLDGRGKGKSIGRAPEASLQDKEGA
Structure (SMILES),CCR2 % ANTAGONISM [%],IC50 [nM]
Nc1ccccc1CS(=O)(=O)c1ccc(Cl)cc1NS(=O)(=O)c1cc2ccccc2o1 [N-{2-[(2-aminobenzyl)sulfonyl]-5-chlorophenyl}-1-benzofuran-2-sulfonamide],98,129
NCC[S+]([O-])c1ccc(Cl)cc1NS(=O)(=O)c1ccc(Cl)c(C(F)(F)F)c1 (stereo not shown) [N-{2-[(2-aminoethyl)sulfinyl]-5-chlorophenyl}-4-chloro-3-(trifluoromethyl)benzenesulfonamide],84,3530
NCCSc1ccc(Cl)cc1NS(=O)(=O)c1ccc(Cl)c(C(F)(F)F)c1 [N-{2-[(2-aminoethyl)thio]-5-chlorophenyl}-4-chloro-3-(trifluoromethyl)benzenesulfonamide],97,1070
"Nc1cccc(C[S+]([O-])c2ccc(Cl)cc2NS(=O)(=O)c2ccc(F)cc2F)c1 (stereo not shown) [N-{2-[(3-aminobenzyl)sulfinyl]-5-chlorophenyl}-2,4-difluorobenzenesulfonamide]",99,443
Nc1cccc(C[S+]([O-])c2ccc(Cl)cc2NS(=O)(=O)c2ccc(Cl)cc2F)c1 (stereo not shown) [N-{2-[(3-aminobenzyl)sulfinyl]-5-chlorophenyl}-4-chloro-2-fluorobenzenesulfonamide],95,113
COc1ccc([S+]([O-])Cc2cccc(N)c2)c(NS(=O)(=O)c2cc3ccccc3o2)c1 (stereo not shown) [N-{2-[(3-aminobenzyl)sulfinyl]-5-methoxyphenyl}-1-benzofuran-2-sulfonamide],100,85
Nc1cccc(C[S+]([O-])c2ccccc2NS(=O)(=O)c2cc3ccccc3o2)c1 (stereo not shown) [N-{2-[(3-aminobenzyl)sulfinyl]phenyl}-1-benzofuran-2-sulfonamide],110,58
Nc1cccc(CS(=O)(=O)c2ccc(Cl)cc2NS(=O)(=O)c2ccc(Cl)cc2F)c1 [N-{2-[(3-aminobenzyl)sulfonyl]-5-chlorophenyl}-4-chloro-2-fluorobenzenesulfonamide],96,248
Nc1cccc(CS(=O)(=O)c2ccc(F)cc2NS(=O)(=O)c2cc3ccccc3o2)c1 [N-{2-[(3-aminobenzyl)sulfonyl]-5-fluorophenyl}-1-benzofuran-2-sulfonamide],90,22
COc1ccc(S(=O)(=O)Cc2cccc(N)c2)c(NS(=O)(=O)c2cc3ccccc3o2)c1 [N-{2-[(3-aminobenzyl)sulfonyl]-5-methoxyphenyl}-1-benzofuran-2-sulfonamide],107,176
"Nc1cccc(CSc2ccc(Cl)cc2NS(=O)(=O)c2ccc(F)cc2F)c1 [N-{2-[(3-aminobenzyl)thio]-5-chlorophenyl}-2,4-difluorobenzenesulfonamide]",64,3240
Nc1cccc(CSc2ccc(Cl)cc2NS(=O)(=O)c2cccc(Cl)c2)c1 [N-{2-[(3-aminobenzyl)thio]-5-chlorophenyl}-3-chlorobenzenesulfonamide],95,1460
Nc1cccc(CSc2ccc(Cl)cc2NS(=O)(=O)c2ccc(Cl)cc2F)c1 [N-{2-[(3-aminobenzyl)thio]-5-chlorophenyl}-4-chloro-2-fluorobenzenesulfonamide],88,2820
Nc1cccc(CSc2ccc(Cl)cc2NS(=O)(=O)c2ccc(Cl)cc2)c1 [N-{2-[(3-aminobenzyl)thio]-5-chlorophenyl}-4-chlorobenzenesulfonamide],95,3890
COc1ccc(SCc2cccc(N)c2)c(NS(=O)(=O)c2cc3ccccc3o2)c1 [N-{2-[(3-aminobenzyl)thio]-5-methoxyphenyl}-1-benzofuran-2-sulfonamide],100,1400
Nc1cccc(CSc2ccccc2NS(=O)(=O)c2cc3ccccc3o2)c1 [N-{2-[(3-aminobenzyl)thio]phenyl}-1-benzofuran-2-sulfonamide],105,676
Nc1cccc(C[S+]([O-])c2ccc(Cl)cc2NS(=O)(=O)c2cc3ccccc3o2)c1 (stereo not shown) [N-{2-[(3-aminobenzypsulfinyl]-5-chlorophenyl}-1-benzofuran-2-sulfonamide],96,39
Nc1cccc(C[S+]([O-])c2ccc(Cl)cc2NS(=O)(=O)c2cccc(Cl)c2)c1 (stereo not shown) [N-{2-[(3-aminobenzypsulfinyl]-5-chlorophenyl}-3-chlorobenzenesulfonamide],93,159
Nc1cccc(CS(=O)(=O)c2ccc(Cl)cc2NS(=O)(=O)c2cc3ccccc3o2)c1 [N-{2-[(3-aminobenzypsulfonyl]-5-chlorophenyl}-1-benzofuran-2-sulfonamide],90,23
Nc1cccc(CSc2ccc(Cl)cc2NS(=O)(=O)c2cc3ccccc3o2)c1 [N-{2-[(3-aminobenzypthio]-5-chlorophenyl}-1-benzofuran-2-sulfonamide],92,42
NCCCS(=O)(=O)c1ccc(Cl)cc1NS(=O)(=O)c1cc2ccccc2o1 [N-{2-[(3-aminopropyl)sulfonyl]-5-chlorophenyl}-1-benzofuran-2-sulfonamide],82,–
NCCCSc1ccc(Cl)cc1NS(=O)(=O)c1cc2ccccc2o1 [N-{2-[(3-aminopropyl)thio]-5-chlorophenyl}-1-benzofuran-2-sulfonamide],102,–
"CC(=O)Nc1nc(CSc2ccc(Cl)cc2NS(=O)(=O)c2cc3ccccc3o2)cs1 [N-{4-[({2-[(1-benzofuran-2-ylsulfonyl)amino]-4-chlorophenyl}thio)methyl]-1,3-thiazol-2-yl}acetamide]",102,848
O=S(=O)(Cc1ncc[nH]1)c1ccc(Cl)cc1NS(=O)(=O)c1cc2ccccc2o1 [N-{5-chloro-2-[(1H-imidazol-2-ylmethyl)sulfonyl]phenyl}-1-benzofuran-2-sulfonamide],109,1350

# Results, then the molecule that gave them:
CCR2 % ANTAGONISM [%],IC50 [nM],Structure (SMILES)
91,100,Nc1ccccc1CSc1ccc(Cl)cc1NS(=O)(=O)c1cc2ccccc2o1 [N-{2-[(2-aminobenzyl)thio]-5-chlorophenyl}-1-benzofuran-2-sulfonamide]
99,159,Nc1cccc(C[S+]([O-])c2ccc(Cl)cc2NS(=O)(=O)c2ccc(Cl)cc2)c1 (stereo not shown) [N-{2-[(3-aminobenzyl)sulfinyl]-5-chlorophenyl}-4-chlorobenzenesulfonamide]
62,2560,Nc1cccc(C[S+]([O-])c2ccc(Cl)cc2NS(=O)(=O)c2ccccc2)c1 (stereo not shown) [N-{2-[(3-aminobenzyl)sulfinyl]-5-chlorophenyl}benzenesulfonamide]
91,38,Nc1cccc(C[S+]([O-])c2ccc(F)cc2NS(=O)(=O)c2cc3ccccc3o2)c1 (stereo not shown) [N-{2-[(3-aminobenzyl)sulfinyl]-5-fluorophenyl}-1-benzofuran-2-sulfonamide]
89,718,"Nc1cccc(CS(=O)(=O)c2ccc(Cl)cc2NS(=O)(=O)c2ccc(F)cc2F)c1 [N-{2-[(3-aminobenzyl)sulfonyl]-5-chlorophenyl}-2,4-difluorobenzenesulfonamide]"
99,421,Nc1cccc(CS(=O)(=O)c2ccc(Cl)cc2NS(=O)(=O)c2ccc(Cl)cc2)c1 [N-{2-[(3-aminobenzyl)sulfonyl]-5-chlorophenyl}-4-chlorobenzenesulfonamide]
52,1240,Nc1cccc(CS(=O)(=O)c2ccc(Cl)cc2NS(=O)(=O)c2ccccc2)c1 [N-{2-[(3-aminobenzyl)sulfonyl]-5-chlorophenyl}benzenesulfonamide]
94,41,Nc1cccc(CS(=O)(=O)c2ccccc2NS(=O)(=O)c2cc3ccccc3o2)c1 [N-{2-[(3-aminobenzyl)sulfonyl]phenyl}-1-benzofuran-2-sulfonamide]
40,3100,Nc1cccc(CSc2ccc(Cl)cc2NS(=O)(=O)c2ccccc2)c1 [N-{2-[(3-aminobenzyl)thio]-5-chlorophenyl}benzenesulfonamide]
97,55,Nc1cccc(CSc2ccc(F)cc2NS(=O)(=O)c2cc3ccccc3o2)c1 [N-{2-[(3-aminobenzyl)thio]-5-fluorophenyl}-1-benzofuran-2-sulfonamide]
91,246,Nc1cccc(CS(=O)(=O)c2ccc(Cl)cc2NS(=O)(=O)c2cccc(Cl)c2)c1 [N-{2-[(3-aminobenzypsulfonyl]-5-chlorophenyl}-3-chlorobenzenesulfonamide]
63,–,NCCC[S+]([O-])c1ccc(Cl)cc1NS(=O)(=O)c1cc2ccccc2o1 (stereo not shown) [N-{2-[(3-aminopropyl)sulfinyl]-5-chlorophenyl}-1-benzofuran-2-sulfonamide]
97,653,O=[N+]([O-])c1cccc(C[S+]([O-])c2ccccc2NS(=O)(=O)c2cc3ccccc3o2)c1 (stereo not shown) [N-{2-[(3-nitrobenzyl)sulfinyl]phenyl}-1-benzofuran-2-sulfonamide]
83,2130,O=[N+]([O-])c1cccc(CS(=O)(=O)c2ccccc2NS(=O)(=O)c2cc3ccccc3o2)c1 [N-{2-[(3-nitrobenzyl)sulfonyl]phenyl}-1-benzofuran-2-sulfonamide]
104,90,Nc1ccc(CS(=O)(=O)c2ccc(Cl)cc2NS(=O)(=O)c2cc3ccccc3o2)cc1 [N-{2-[(4-aminobenzyl)sulfonyl]-5-chlorophenyl}-1-benzofuran-2-sulfonamide]
108,1900,O=S(=O)(Nc1cc(Cl)ccc1[S+]([O-])Cc1ncc[nH]1)c1cc2ccccc2o1 (stereo not shown) [N-{5-chloro-2-[(1H-imidazol-2-ylmethyl)sulfinyl]phenyl}-1-benzofuran-2-sulfonamide]
93,60,O=S(=O)(Nc1cc(Cl)ccc1SCc1ncc[nH]1)c1cc2ccccc2o1 [N-{5-chloro-2-[(1H-imidazol-2-ylmethyl)thio]phenyl}-1-benzofuran-2-sulfonamide]
